{"source": "the kinase profiling compilation of Christmann-Franck et al. (2016)", "test_in_all_cases": "KINOMEscan competition binding", "settings_in_all_cases": "compound 10.0 µM", "key": {"[1]": {"molecular_target": "AKT1 (human) (UniProt P31749)", "sequence (P31749 whole entry, looked up)": "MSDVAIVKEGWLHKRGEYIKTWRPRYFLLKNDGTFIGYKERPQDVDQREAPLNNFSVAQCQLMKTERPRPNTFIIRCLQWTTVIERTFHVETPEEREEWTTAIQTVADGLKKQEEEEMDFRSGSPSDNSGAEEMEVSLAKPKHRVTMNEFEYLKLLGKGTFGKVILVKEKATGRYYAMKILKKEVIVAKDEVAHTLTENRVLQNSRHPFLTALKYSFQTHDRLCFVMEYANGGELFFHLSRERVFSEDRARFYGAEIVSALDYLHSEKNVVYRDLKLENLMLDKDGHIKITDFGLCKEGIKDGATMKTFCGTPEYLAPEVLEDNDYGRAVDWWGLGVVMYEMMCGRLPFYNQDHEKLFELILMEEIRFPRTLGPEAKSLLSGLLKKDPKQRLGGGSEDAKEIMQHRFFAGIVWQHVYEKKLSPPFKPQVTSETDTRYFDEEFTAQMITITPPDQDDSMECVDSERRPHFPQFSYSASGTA"}, "[2]": {"molecular_target": "CAMK1D (human) (UniProt Q8IU85)"}, "[3]": {"molecular_target": "CDK17 (human) (UniProt Q00537)", "sequence (Q00537 whole entry, looked up)": "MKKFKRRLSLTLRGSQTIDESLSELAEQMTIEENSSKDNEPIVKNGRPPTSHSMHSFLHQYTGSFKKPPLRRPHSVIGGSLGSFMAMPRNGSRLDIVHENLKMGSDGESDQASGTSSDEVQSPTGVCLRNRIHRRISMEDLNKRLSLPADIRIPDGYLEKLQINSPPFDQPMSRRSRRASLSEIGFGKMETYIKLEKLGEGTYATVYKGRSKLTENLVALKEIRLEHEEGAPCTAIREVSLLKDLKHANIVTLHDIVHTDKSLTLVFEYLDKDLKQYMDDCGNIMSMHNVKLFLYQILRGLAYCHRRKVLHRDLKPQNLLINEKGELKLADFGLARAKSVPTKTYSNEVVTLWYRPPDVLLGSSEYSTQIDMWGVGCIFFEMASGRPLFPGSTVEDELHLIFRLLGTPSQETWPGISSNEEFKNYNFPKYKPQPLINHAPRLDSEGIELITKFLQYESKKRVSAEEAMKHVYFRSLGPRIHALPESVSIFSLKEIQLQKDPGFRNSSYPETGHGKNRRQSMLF"}, "[4]": {"molecular_target": "CSF1R (human) (UniProt P07333)"}, "[5]": {"molecular_target": "CSNK2A1 (human) (UniProt P68400)"}, "[6]": {"molecular_target": "CSNK2A2 (human) (UniProt P19784)", "sequence (P19784 whole entry, looked up)": "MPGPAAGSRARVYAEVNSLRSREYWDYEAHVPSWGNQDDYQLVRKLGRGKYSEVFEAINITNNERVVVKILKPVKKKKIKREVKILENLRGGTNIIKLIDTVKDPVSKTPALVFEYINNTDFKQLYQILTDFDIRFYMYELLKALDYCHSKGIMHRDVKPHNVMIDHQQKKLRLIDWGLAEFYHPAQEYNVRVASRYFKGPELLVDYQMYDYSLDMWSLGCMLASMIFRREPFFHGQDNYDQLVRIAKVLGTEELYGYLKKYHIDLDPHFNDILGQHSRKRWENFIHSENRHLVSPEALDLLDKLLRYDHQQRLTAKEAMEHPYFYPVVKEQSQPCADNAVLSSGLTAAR"}, "[7]": {"molecular_target": "EPHA8 (human) (UniProt P29322)"}, "[8]": {"molecular_target": "EPHB1 (human) (UniProt P54762)"}, "[9]": {"molecular_target": "EPHB4 (human) (UniProt P54760)", "sequence (P54760 whole entry, looked up)": "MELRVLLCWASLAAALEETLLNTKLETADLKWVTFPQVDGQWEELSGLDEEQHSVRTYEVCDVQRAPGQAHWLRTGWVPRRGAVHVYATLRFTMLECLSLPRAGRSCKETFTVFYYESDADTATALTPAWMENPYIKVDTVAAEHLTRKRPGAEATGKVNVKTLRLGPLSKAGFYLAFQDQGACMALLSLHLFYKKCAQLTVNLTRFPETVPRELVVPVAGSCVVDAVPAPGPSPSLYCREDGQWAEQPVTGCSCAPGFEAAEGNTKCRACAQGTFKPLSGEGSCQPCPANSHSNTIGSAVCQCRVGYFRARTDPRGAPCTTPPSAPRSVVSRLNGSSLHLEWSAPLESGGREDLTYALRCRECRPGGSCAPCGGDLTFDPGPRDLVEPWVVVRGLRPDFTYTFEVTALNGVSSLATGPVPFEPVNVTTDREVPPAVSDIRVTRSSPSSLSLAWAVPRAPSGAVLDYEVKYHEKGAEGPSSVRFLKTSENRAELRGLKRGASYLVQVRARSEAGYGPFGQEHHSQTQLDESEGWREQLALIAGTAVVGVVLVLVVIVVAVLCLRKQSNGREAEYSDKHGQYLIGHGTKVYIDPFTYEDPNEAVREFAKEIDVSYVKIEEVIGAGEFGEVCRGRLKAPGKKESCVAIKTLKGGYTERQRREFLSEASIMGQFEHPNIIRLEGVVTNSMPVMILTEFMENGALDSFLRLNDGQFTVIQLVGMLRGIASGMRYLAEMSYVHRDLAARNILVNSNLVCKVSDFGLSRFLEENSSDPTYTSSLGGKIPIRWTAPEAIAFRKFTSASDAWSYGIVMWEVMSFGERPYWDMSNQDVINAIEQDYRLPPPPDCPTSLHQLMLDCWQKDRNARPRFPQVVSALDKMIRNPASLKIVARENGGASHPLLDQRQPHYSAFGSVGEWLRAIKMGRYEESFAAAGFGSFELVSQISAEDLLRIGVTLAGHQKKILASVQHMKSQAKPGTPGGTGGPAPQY"}, "[10]": {"molecular_target": "FES (human) (UniProt P07332)"}, "[11]": {"molecular_target": "FLT1 (human) (UniProt P17948)"}, "[12]": {"test_system": "FLT3 (human), P36888 [ITD]", "sequence (P36888 whole entry, looked up, change not shown)": "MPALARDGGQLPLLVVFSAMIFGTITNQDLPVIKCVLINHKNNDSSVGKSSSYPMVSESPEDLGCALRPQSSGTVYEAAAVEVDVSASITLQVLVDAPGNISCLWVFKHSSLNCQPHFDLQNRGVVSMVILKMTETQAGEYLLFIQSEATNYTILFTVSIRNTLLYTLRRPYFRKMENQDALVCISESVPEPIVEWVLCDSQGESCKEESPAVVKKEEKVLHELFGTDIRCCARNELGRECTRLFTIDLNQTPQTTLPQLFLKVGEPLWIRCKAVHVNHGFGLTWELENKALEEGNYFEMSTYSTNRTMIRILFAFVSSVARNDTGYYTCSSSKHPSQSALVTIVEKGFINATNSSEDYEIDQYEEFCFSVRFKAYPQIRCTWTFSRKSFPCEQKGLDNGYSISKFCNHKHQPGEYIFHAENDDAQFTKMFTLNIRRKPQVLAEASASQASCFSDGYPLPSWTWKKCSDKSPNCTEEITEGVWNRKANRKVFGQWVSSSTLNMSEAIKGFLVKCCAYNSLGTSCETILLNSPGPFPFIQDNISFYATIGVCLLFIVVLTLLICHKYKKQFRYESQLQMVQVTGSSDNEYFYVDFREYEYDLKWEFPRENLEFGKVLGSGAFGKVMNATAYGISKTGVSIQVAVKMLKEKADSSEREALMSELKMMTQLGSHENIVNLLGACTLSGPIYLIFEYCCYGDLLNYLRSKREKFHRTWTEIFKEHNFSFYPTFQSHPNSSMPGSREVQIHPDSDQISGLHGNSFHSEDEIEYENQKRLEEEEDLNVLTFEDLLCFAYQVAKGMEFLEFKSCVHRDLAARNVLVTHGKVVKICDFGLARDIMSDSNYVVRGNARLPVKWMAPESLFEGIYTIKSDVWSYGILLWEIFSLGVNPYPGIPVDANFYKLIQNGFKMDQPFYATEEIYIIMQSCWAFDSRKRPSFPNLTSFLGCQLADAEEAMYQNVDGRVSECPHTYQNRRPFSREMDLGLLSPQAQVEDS"}, "[13]": {"molecular_target": "GAK (human) (UniProt O14976)"}, "[14]": {"molecular_target": "GSK3B (human) (UniProt P49841)"}, "[15]": {"molecular_target": "LCK (human) (UniProt P06239)"}, "[16]": {"molecular_target": "LIMK1 (human) (UniProt P53667)"}, "[17]": {"molecular_target": "LTK (human) (UniProt P29376)"}, "[18]": {"molecular_target": "LYN (human) (UniProt P07948)", "sequence (P07948 whole entry, looked up)": "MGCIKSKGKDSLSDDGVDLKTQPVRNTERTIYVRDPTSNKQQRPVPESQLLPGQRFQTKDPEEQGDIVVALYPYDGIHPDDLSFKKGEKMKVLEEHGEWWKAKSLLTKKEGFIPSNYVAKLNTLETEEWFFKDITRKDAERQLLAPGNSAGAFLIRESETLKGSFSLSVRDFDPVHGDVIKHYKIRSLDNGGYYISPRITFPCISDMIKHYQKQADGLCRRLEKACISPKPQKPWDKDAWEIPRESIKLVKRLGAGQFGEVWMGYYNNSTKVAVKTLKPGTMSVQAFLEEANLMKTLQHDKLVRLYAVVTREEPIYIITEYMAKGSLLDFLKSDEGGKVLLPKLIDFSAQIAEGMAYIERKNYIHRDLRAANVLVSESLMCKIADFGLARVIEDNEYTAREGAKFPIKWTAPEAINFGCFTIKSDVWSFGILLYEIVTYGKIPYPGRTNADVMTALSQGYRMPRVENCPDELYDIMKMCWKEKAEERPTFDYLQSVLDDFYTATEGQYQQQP"}, "[19]": {"molecular_target": "MAP3K7 (human) (UniProt O43318)"}, "[20]": {"molecular_target": "MAPK12 (human) (UniProt P53778)", "sequence (P53778 whole entry, looked up)": "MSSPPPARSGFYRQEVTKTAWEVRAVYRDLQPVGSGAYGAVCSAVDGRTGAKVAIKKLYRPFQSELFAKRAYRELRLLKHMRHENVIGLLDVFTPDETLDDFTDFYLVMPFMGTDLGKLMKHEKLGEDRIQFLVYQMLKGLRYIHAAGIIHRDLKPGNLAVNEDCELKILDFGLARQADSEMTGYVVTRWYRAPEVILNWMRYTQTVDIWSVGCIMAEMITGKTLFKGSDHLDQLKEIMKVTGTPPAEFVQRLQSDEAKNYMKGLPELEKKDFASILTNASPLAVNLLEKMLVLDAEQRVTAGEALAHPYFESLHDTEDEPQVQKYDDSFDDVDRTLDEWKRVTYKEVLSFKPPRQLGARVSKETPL"}, "[21]": {"molecular_target": "MAPK7 (human) (UniProt Q13164)"}, "[22]": {"molecular_target": "MAPK8 (human) (UniProt P45983)", "sequence (P45983 whole entry, looked up)": "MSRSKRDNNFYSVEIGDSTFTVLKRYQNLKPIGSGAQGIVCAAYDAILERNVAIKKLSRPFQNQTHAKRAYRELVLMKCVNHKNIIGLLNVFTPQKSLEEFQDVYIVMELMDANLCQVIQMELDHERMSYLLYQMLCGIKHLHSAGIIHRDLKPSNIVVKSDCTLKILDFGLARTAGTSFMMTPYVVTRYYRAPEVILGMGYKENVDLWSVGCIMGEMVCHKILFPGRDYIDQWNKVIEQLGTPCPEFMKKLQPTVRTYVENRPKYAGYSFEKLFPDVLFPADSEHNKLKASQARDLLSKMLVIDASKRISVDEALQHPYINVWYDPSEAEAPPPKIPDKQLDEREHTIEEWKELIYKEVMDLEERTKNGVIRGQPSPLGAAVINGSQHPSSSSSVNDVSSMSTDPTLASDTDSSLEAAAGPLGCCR"}, "[23]": {"molecular_target": "MKNK2 (human) (UniProt Q9HBH9)"}, "[24]": {"molecular_target": "NEK2 (human) (UniProt P51955)"}, "[25]": {"molecular_target": "NLK (human) (UniProt Q9UBE8)"}, "[26]": {"molecular_target": "NUAK1 (human) (UniProt O60285)"}, "[27]": {"molecular_target": "PAK3 (human) (UniProt O75914)"}, "[28]": {"molecular_target": "PAK7 (human) (UniProt Q9P286)"}, "[29]": {"molecular_target": "PIM1 (human) (UniProt P11309)", "sequence (P11309 whole entry, looked up)": "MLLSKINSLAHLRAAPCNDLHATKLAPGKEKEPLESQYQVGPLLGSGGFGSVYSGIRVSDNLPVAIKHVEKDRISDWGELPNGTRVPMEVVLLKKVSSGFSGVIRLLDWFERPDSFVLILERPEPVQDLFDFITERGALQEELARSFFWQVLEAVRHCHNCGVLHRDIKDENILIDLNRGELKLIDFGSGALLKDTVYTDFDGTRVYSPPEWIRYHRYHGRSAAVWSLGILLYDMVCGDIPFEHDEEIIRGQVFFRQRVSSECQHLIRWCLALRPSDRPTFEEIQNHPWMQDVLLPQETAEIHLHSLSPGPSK"}, "[30]": {"molecular_target": "PIM2 (human) (UniProt Q9P1W9)"}, "[31]": {"molecular_target": "PIM3 (human) (UniProt Q86V86)"}, "[32]": {"molecular_target": "PKMYT1 (human) (UniProt Q99640)"}, "[33]": {"molecular_target": "PRKCE (human) (UniProt Q02156)"}, "[34]": {"molecular_target": "PRKCH (human) (UniProt P24723)"}, "[35]": {"molecular_target": "PRKG2 (human) (UniProt Q13237)"}, "[36]": {"molecular_target": "PTK2 (human) (UniProt Q05397)"}, "[37]": {"molecular_target": "RPS6KA5 KD1 (human) (UniProt O75582)"}, "[38]": {"molecular_target": "STK36 (human) (UniProt Q9NRP7)"}, "[39]": {"molecular_target": "TAOK1 (human) (UniProt Q7L7X3)"}, "[40]": {"molecular_target": "TEK (human) (UniProt Q02763)"}, "[41]": {"molecular_target": "ULK1 (human) (UniProt O75385)"}}, "data": [{"smiles": "O=C(NC1CC1)c1cccc(-c2ccc3c(NC(=O)C4CC4)n[nH]c3c2)c1", "values": [{"measurement": "kinase still bound, per cent of control", "setting": "[1]", "value": 100, "unit": "%"}, {"measurement": "kinase still bound, per cent of control", "setting": "[2]", "value": 100, "unit": "%"}, {"measurement": "kinase still bound, per cent of control", "setting": "[3]", "value": 37, "unit": "%"}, {"measurement": "kinase still bound, per cent of control", "setting": "[4]", "value": 70, "unit": "%"}, {"measurement": "kinase still bound, per cent of control", "setting": "[5]", "value": 62, "unit": "%"}, {"measurement": "kinase still bound, per cent of control", "setting": "[6]", "value": 16, "unit": "%"}, {"measurement": "kinase still bound, per cent of control", "setting": "[7]", "value": 92, "unit": "%"}, {"measurement": "kinase still bound, per cent of control", "setting": "[8]", "value": 100, "unit": "%"}, {"measurement": "kinase still bound, per cent of control", "setting": "[9]", "value": 100, "unit": "%"}, {"measurement": "kinase still bound, per cent of control", "setting": "[10]", "value": 100, "unit": "%"}, {"measurement": "kinase still bound, per cent of control", "setting": "[11]", "value": 100, "unit": "%"}, {"measurement": "kinase still bound, per cent of control", "setting": "[12]", "value": 30, "unit": "%"}, {"measurement": "kinase still bound, per cent of control", "setting": "[13]", "value": 49, "unit": "%"}, {"measurement": "kinase still bound, per cent of control", "setting": "[14]", "value": 97, "unit": "%"}, {"measurement": "kinase still bound, per cent of control", "setting": "[15]", "value": 100, "unit": "%"}, {"measurement": "kinase still bound, per cent of control", "setting": "[16]", "value": 100, "unit": "%"}, {"measurement": "kinase still bound, per cent of control", "setting": "[17]", "value": 100, "unit": "%"}, {"measurement": "kinase still bound, per cent of control", "setting": "[18]", "value": 83, "unit": "%"}, {"measurement": "kinase still bound, per cent of control", "setting": "[19]", "value": 56, "unit": "%"}, {"measurement": "kinase still bound, per cent of control", "setting": "[20]", "value": 24, "unit": "%"}, {"measurement": "kinase still bound, per cent of control", "setting": "[21]", "value": 93, "unit": "%"}, {"measurement": "kinase still bound, per cent of control", "setting": "[22]", "value": 40, "unit": "%"}, {"measurement": "kinase still bound, per cent of control", "setting": "[23]", "value": 50, "unit": "%"}, {"measurement": "kinase still bound, per cent of control", "setting": "[24]", "value": 80, "unit": "%"}, {"measurement": "kinase still bound, per cent of control", "setting": "[25]", "value": 31, "unit": "%"}, {"measurement": "kinase still bound, per cent of control", "setting": "[26]", "value": 100, "unit": "%"}, {"measurement": "kinase still bound, per cent of control", "setting": "[27]", "value": 60, "unit": "%"}, {"measurement": "kinase still bound, per cent of control", "setting": "[28]", "value": 67, "unit": "%"}, {"measurement": "kinase still bound, per cent of control", "setting": "[29]", "value": 70, "unit": "%"}, {"measurement": "kinase still bound, per cent of control", "setting": "[30]", "value": 100, "unit": "%"}, {"measurement": "kinase still bound, per cent of control", "setting": "[31]", "value": 70, "unit": "%"}, {"measurement": "kinase still bound, per cent of control", "setting": "[32]", "value": 77, "unit": "%"}, {"measurement": "kinase still bound, per cent of control", "setting": "[33]", "value": 100, "unit": "%"}, {"measurement": "kinase still bound, per cent of control", "setting": "[34]", "value": 100, "unit": "%"}, {"measurement": "kinase still bound, per cent of control", "setting": "[35]", "value": 72, "unit": "%"}, {"measurement": "kinase still bound, per cent of control", "setting": "[36]", "value": 90, "unit": "%"}, {"measurement": "kinase still bound, per cent of control", "setting": "[37]", "value": 100, "unit": "%"}, {"measurement": "kinase still bound, per cent of control", "setting": "[38]", "value": 88, "unit": "%"}, {"measurement": "kinase still bound, per cent of control", "setting": "[39]", "value": 4.5, "unit": "%"}, {"measurement": "kinase still bound, per cent of control", "setting": "[40]", "value": 54, "unit": "%"}, {"measurement": "kinase still bound, per cent of control", "setting": "[41]", "value": 100, "unit": "%"}]}, {"smiles": "CCN1CCN(Cc2ccc(Nc3ncc4c(n3)N(C)c3ccccc3C(=O)N4C)cc2C(F)(F)F)CC1", "values": [{"measurement": "kinase still bound, per cent of control", "setting": "[1]", "value": 100, "unit": "%"}, {"measurement": "kinase still bound, per cent of control", "setting": "[2]", "value": 76, "unit": "%"}, {"measurement": "kinase still bound, per cent of control", "setting": "[3]", "value": 88, "unit": "%"}, {"measurement": "kinase still bound, per cent of control", "setting": "[4]", "value": 0.5, "unit": "%"}, {"measurement": "kinase still bound, per cent of control", "setting": "[5]", "value": 79, "unit": "%"}, {"measurement": "kinase still bound, per cent of control", "setting": "[6]", "value": 100, "unit": "%"}, {"measurement": "kinase still bound, per cent of control", "setting": "[7]", "value": 100, "unit": "%"}, {"measurement": "kinase still bound, per cent of control", "setting": "[8]", "value": 100, "unit": "%"}, {"measurement": "kinase still bound, per cent of control", "setting": "[9]", "value": 93, "unit": "%"}, {"measurement": "kinase still bound, per cent of control", "setting": "[10]", "value": 100, "unit": "%"}, {"measurement": "kinase still bound, per cent of control", "setting": "[11]", "value": 100, "unit": "%"}, {"measurement": "kinase still bound, per cent of control", "setting": "[12]", "value": 19, "unit": "%"}, {"measurement": "kinase still bound, per cent of control", "setting": "[13]", "value": 12, "unit": "%"}, {"measurement": "kinase still bound, per cent of control", "setting": "[14]", "value": 47, "unit": "%"}, {"measurement": "kinase still bound, per cent of control", "setting": "[15]", "value": 5, "unit": "%"}, {"measurement": "kinase still bound, per cent of control", "setting": "[16]", "value": 52, "unit": "%"}, {"measurement": "kinase still bound, per cent of control", "setting": "[17]", "value": 100, "unit": "%"}, {"measurement": "kinase still bound, per cent of control", "setting": "[18]", "value": 61, "unit": "%"}, {"measurement": "kinase still bound, per cent of control", "setting": "[19]", "value": 17, "unit": "%"}, {"measurement": "kinase still bound, per cent of control", "setting": "[20]", "value": 97, "unit": "%"}, {"measurement": "kinase still bound, per cent of control", "setting": "[21]", "value": 0.1, "unit": "%"}, {"measurement": "kinase still bound, per cent of control", "setting": "[22]", "value": 100, "unit": "%"}, {"measurement": "kinase still bound, per cent of control", "setting": "[23]", "value": 0.2, "unit": "%"}, {"measurement": "kinase still bound, per cent of control", "setting": "[24]", "value": 100, "unit": "%"}, {"measurement": "kinase still bound, per cent of control", "setting": "[25]", "value": 56, "unit": "%"}, {"measurement": "kinase still bound, per cent of control", "setting": "[26]", "value": 3, "unit": "%"}, {"measurement": "kinase still bound, per cent of control", "setting": "[27]", "value": 9.4, "unit": "%"}, {"measurement": "kinase still bound, per cent of control", "setting": "[28]", "value": 81, "unit": "%"}, {"measurement": "kinase still bound, per cent of control", "setting": "[29]", "value": 86, "unit": "%"}, {"measurement": "kinase still bound, per cent of control", "setting": "[30]", "value": 30, "unit": "%"}, {"measurement": "kinase still bound, per cent of control", "setting": "[31]", "value": 84, "unit": "%"}, {"measurement": "kinase still bound, per cent of control", "setting": "[32]", "value": 100, "unit": "%"}, {"measurement": "kinase still bound, per cent of control", "setting": "[33]", "value": 81, "unit": "%"}, {"measurement": "kinase still bound, per cent of control", "setting": "[34]", "value": 100, "unit": "%"}, {"measurement": "kinase still bound, per cent of control", "setting": "[35]", "value": 86, "unit": "%"}, {"measurement": "kinase still bound, per cent of control", "setting": "[36]", "value": 57, "unit": "%"}, {"measurement": "kinase still bound, per cent of control", "setting": "[37]", "value": 100, "unit": "%"}, {"measurement": "kinase still bound, per cent of control", "setting": "[38]", "value": 82, "unit": "%"}, {"measurement": "kinase still bound, per cent of control", "setting": "[39]", "value": 0.2, "unit": "%"}, {"measurement": "kinase still bound, per cent of control", "setting": "[40]", "value": 85, "unit": "%"}, {"measurement": "kinase still bound, per cent of control", "setting": "[41]", "value": 0, "unit": "%"}]}]}
